According to ChEMBL document CHEMBL1909046, “DrugMatrix in vitro pharmacology data”:
*1 amine or outer side, *2 acyl side, *3 side chain or, on linkers, in order; H or OH if unused. Where a SMILES comes first, the peptide text is derived from it. Bridges are numbered along the chain shown (N, C = ends). Roman numbers before positions name the chains, in order. [ ]: non-standard residue; d: D form. Actinocin(1to9) = Cc1c2oc3c(C)ccc(C(=O)[*:2])c3nc-2c(C(=O)[*:1])c(N)c1=O; NMeV = CN[C@H](C(=O)O)C(C)C; Sar = CNCC(=O)O

Columns and labels:
[1] = DRUGMATRIX: GABAA, Muscimol, Central radioligand binding (ligand: [3H] Muscimol); format: cell membranes, Rattus norvegicus, Wistar, Brain, Membrane; conditions: Not Active = under 50% inhibition at 10 µM
[2] = DRUGMATRIX: Serotonin (5-Hydroxytryptamine) 5-HT3 radioligand binding (ligand: [3H] GR-65630); format: cell membranes, Membrane; conditions: hek293; Not Active = under 50% inhibition at 10 µM
[3] = molecular target: T1, Vasoactive intestinal polypeptide receptor 1 (Homo sapiens, UniProt P32241); format: cell membranes, Membrane; conditions: ht-29; further: in other assays of this panel Not Active means under 50% inhibition at 10 µM
T1 sequence (P32241 whole entry): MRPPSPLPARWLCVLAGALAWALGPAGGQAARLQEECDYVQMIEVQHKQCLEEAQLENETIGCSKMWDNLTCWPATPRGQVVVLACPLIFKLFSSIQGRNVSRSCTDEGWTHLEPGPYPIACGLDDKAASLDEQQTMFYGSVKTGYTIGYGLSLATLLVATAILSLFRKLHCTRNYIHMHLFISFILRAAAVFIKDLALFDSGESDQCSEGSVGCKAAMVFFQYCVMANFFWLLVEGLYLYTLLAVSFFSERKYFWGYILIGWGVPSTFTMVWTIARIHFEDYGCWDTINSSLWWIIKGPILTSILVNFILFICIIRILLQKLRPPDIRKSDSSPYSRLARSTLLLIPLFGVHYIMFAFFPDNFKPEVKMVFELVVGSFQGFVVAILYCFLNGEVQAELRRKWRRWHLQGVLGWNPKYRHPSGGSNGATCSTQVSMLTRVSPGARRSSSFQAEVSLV

Carbonic anhydrase 2 = Carbonic anhydrase 2 (Homo sapiens, UniProt P00918); assay: DRUGMATRIX: Carbonic Anhydrase II enzyme inhibition (substrate: 4-Nitrophenyl acetate (4-NPA)); format: tissue-based, Erythrocyte; conditions: erythrocyte; Not Active = under 50% inhibition at 10 µM
[4] = molecular target: 5-hydroxytryptamine receptor 6 (Homo sapiens, UniProt P50406); format: cell membranes, HeLa, Membrane; conditions: hela; further: in other assays of this panel Not Active means under 50% inhibition at 10 µM
[5] = molecular target: T2, Muscarinic acetylcholine receptor M4 (Homo sapiens, UniProt P08173); format: cell membranes, CHO-K1, Membrane; conditions: cho-k1; further: in other assays of this panel Not Active means under 50% inhibition at 10 µM
T2 sequence (P08173 whole entry): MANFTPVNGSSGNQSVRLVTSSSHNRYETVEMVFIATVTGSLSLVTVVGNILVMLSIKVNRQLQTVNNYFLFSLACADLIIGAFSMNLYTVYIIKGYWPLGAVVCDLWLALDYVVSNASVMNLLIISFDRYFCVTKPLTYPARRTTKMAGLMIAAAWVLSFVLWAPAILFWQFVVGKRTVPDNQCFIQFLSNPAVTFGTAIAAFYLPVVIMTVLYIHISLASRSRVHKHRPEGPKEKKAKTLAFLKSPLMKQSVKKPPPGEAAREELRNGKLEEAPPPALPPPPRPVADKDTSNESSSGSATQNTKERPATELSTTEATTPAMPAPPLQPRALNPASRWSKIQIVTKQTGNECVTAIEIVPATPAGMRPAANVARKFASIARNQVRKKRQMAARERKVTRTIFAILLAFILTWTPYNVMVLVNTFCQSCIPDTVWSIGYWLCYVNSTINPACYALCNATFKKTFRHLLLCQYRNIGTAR

[6] = molecular target: T3, Angiotensin-converting enzyme (Oryctolagus cuniculus, UniProt P12822); format: tissue-based, Lung;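 further: enzymatic inhibition of angiotensin-converting enzyme measured with FAPGG as the substrate; in other assays of this panel Not Active means under 50% inhibition at 10 µM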
T3 sequence (P12822 whole entry): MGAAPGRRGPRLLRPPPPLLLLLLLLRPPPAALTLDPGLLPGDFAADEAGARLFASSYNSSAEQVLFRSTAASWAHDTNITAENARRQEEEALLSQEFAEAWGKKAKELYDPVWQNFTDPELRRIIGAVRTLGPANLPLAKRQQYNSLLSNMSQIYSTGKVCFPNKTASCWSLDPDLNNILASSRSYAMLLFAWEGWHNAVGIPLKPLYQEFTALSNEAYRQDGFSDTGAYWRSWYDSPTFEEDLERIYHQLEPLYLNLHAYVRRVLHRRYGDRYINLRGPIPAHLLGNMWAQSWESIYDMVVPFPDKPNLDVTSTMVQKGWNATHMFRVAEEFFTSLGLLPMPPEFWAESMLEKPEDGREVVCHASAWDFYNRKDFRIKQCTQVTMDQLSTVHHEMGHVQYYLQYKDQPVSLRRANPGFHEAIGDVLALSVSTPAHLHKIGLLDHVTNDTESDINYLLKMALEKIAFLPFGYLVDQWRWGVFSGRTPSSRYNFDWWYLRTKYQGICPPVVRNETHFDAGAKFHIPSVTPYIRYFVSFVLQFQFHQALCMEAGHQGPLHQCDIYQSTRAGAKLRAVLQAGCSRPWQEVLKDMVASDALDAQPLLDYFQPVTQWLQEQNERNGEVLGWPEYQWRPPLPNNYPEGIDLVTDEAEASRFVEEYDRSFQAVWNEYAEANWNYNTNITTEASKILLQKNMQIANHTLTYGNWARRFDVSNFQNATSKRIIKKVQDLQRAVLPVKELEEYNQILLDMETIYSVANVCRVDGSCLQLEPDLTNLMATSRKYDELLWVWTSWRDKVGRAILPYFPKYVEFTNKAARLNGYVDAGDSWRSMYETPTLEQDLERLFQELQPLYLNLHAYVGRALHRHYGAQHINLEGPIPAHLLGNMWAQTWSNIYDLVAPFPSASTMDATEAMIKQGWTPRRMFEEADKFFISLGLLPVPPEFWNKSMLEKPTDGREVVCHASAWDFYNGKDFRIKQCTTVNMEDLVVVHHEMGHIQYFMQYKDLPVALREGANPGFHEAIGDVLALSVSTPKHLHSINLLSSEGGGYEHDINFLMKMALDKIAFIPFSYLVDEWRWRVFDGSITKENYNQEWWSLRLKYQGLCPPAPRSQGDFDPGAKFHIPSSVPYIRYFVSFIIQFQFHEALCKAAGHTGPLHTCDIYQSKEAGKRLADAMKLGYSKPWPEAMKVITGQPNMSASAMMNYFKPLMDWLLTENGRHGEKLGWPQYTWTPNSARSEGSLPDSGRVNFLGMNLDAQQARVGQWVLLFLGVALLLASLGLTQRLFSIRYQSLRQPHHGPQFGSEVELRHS

Chain of 5-hydroxytryptamine receptor 6 (P50406 whole entry): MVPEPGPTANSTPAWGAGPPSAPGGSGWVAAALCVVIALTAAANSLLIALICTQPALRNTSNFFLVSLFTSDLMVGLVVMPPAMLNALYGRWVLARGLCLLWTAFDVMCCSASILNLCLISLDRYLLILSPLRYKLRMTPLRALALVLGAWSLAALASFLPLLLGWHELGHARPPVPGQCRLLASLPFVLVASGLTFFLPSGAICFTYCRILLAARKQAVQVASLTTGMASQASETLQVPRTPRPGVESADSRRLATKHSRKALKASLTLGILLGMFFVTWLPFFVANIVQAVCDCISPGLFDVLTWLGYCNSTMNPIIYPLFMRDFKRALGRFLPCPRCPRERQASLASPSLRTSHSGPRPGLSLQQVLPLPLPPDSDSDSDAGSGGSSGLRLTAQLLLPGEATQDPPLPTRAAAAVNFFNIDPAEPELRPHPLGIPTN

CCC(C)n1ncn(-c2ccc(N3CCN(c4ccc(OCC5COC(Cn6cncn6)(c6ccc(Cl)cc6Cl)O5)cc4)CC3)cc2)c1=O (configuration not stated) [ITRACONAZOLE]
Not Active: IC50 [1] | Ki [1] | IC50 [2] | Ki [2] | IC50 [3] | IC50 (Carbonic anhydrase 2) | IC50 [4] | IC50 [5] | IC50 [6]

Cc1c(C)c2c(c(C)c1O)CC[C@@](C)(CCC[C@H](C)CCC[C@H](C)CCCC(C)C)O2 [ALPHA-TOCOPHEROL]
Not Active: IC50 [1] | Ki [1] | IC50 [2] | Ki [2] | IC50 [3] | IC50 (Carbonic anhydrase 2) | IC50 [4] | IC50 [5] | IC50 [6]

Cc1cc(C(C#N)c2ccc(Cl)cc2)c(Cl)cc1NC(=O)c1cc(I)cc(I)c1O (configuration not stated) [CLOSANTEL]
Not Active: IC50 [1] | Ki [1] | IC50 [2] | Ki [2] | IC50 [3] | IC50 (Carbonic anhydrase 2) | IC50 [4] | IC50 [5] | IC50 [6]

CNNCc1ccc(C(=O)NC(C)C)cc1 [PROCARBAZINE]
Not Active: IC50 [1] | Ki [1] | IC50 [2] | Ki [2] | IC50 [3] | IC50 (Carbonic anhydrase 2) | IC50 [4] | IC50 [5] | IC50 [6]

Cc1ccc(/N=C/N(C)/C=N/c2ccc(C)cc2C)c(C)c1 [AMITRAZ]
Not Active: IC50 [1] | Ki [1] | IC50 [2] | Ki [2] | IC50 [3] | IC50 (Carbonic anhydrase 2) | IC50 [4] | IC50 [5] | IC50 [6]

Cc1ccc2cc3c(ccc4ccccc43)c3c2c1CC3 [3-METHYLCHOLANTHRENE]
Not Active: IC50 [1] | Ki [1] | IC50 [2] | Ki [2] | IC50 [3] | IC50 (Carbonic anhydrase 2) | IC50 [4] | IC50 [5] | IC50 [6]

CNCCc1ccccn1 [BETAHISTINE]
Not Active: IC50 [1] | Ki [1] | IC50 [2] | Ki [2] | IC50 [3] | IC50 (Carbonic anhydrase 2) | IC50 [4] | IC50 [5] | IC50 [6]

OC(Cn1cncn1)(Cn1cncn1)c1ccc(F)cc1F [FLUCONAZOLE]
Not Active: IC50 [1] | Ki [1] | IC50 [2] | Ki [2] | IC50 [3] | IC50 (Carbonic anhydrase 2) | IC50 [4] | IC50 [5] | IC50 [6]

Cc1c2oc3c(C)ccc(C(=O)N[C@@H]4C(=O)N[C@H](C(C)C)C(=O)N5CCC[C@H]5C(=O)N(C)CC(=O)N(C)[C@@H](C(C)C)C(=O)O[C@@H]4C)c3nc-2c(C(=O)N[C@@H]2C(=O)N[C@H](C(C)C)C(=O)N3CCC[C@H]3C(=O)N(C)CC(=O)N(C)[C@@H](C(C)C)C(=O)O[C@@H]2C)c(N)c1=O [DACTINOMYCIN] (I: T[dV]P[Sar][NMeV] / II: T[dV]P[Sar][NMeV]; ester I:1-I:C, II:1-II:C; linker I:N-II:N via Actinocin(1to9))
Not Active: IC50 [1] | Ki [1] | IC50 [2] | Ki [2] | IC50 [3] | IC50 (Carbonic anhydrase 2) | IC50 [4] | IC50 [5] | IC50 [6]

Nc1nc(N)nc(-c2cc(Cl)ccc2Cl)n1.O=C(O)/C=C\C(=O)O [IRSOGLADINE MALEATE]
Not Active: IC50 [1] | Ki [1] | IC50 [2] | Ki [2] | IC50 [3] | IC50 (Carbonic anhydrase 2) | IC50 [4] | IC50 [5] | IC50 [6]

Nc1ncn([C@@H]2O[C@H](CO)[C@@H](O)[C@H]2O)c(=O)n1 [AZACITIDINE]
Not Active: IC50 [1] | Ki [1] | IC50 [2] | Ki [2] | IC50 [3] | IC50 (Carbonic anhydrase 2) | IC50 [4] | IC50 [5] | IC50 [6]

CC(NC(C)(C)C)C(=O)c1cccc(Cl)c1 (configuration not stated) [BUPROPION]
Not Active: IC50 [1] | Ki [1] | IC50 [2] | Ki [2] | IC50 [3] | IC50 (Carbonic anhydrase 2) | IC50 [4] | IC50 [5] | IC50 [6]

Cc1cc(C2CCCCC2)n(O)c(=O)c1 [CICLOPIROX]
Not Active: IC50 [1] | Ki [1] | IC50 [2] | Ki [2] | IC50 [3] | IC50 (Carbonic anhydrase 2) | IC50 [4] | IC50 [5] | IC50 [6]
